Laboratory results taken from patent publication US6225321A (priority 1997, dated 2001).
Where “and” joins values, the source holds several entries; their conditions need not be identical. Identical values can stand only once. Counter-ions that a name gives are not always drawn.

Columns and labels:
[1] = comparison value for Nalbuphine hydrochloride, source not stated; cited from earlier work
guinea pigs = experiment: Analgesic effect, intramuscular, guinea pigs; format: in vivo, guinea pig; settings: hydrochloride
Procedure: Six male Sprague Dawley rats (175 to 225 g), and six male guinea pigs (200 to 250 g) were used.
Dose for guinea pig was 500 μ/kg, 250 μM/kg.

Sprague Dawley rats = experiment: Analgesic effect, cold ethanol bath tail flick test, intramuscular, rats; format: in vivo, rat; settings: FIG. 6, rats, 25 micromole/kg intramuscular; for analgesic duration of Nalbuphine free base compared with the preparation of this ester: the shorter one is Nalbuphine free base
Procedure: Sprague Dawley rats(175 to 225 g) were used. Each group consisted of 6 rats and each rats was injected once intramuscularly on the rear leg. […]
The dose for each rat was 25 micromole per kg, intramuscularly.
In the experiment, a circulating cold ethanol bath with a temperature maintained at -20° C. was set up. After dosing, the rat tail(1/3 from the tip) was immersed in the bath. The latency for the rat to flick its tail from the bath was measured to be the nociceptive threshold. The effect of various opium alkaloid preparations can be determined with this test.
The nociceptive effect can be calculated as follows: [formula]
35, 25, 15 minutes before dosing, Male Sprague Dawley rat(175-225 g) was tested to measure the basic response latency. The time to top the experiment was set at 40 seconds to prevent the tail from cold sore. No cold sore were found in 40 sec. Five minutes after the drug was given to the rat, the flick test was performed every 10 minutes or more. […]
(c) Dinalbuphine sebacoyl ester, dose was 7.8125 μ/kg, 31.25 μM/kg, 125 μM/kg.
(d) 50 mg/ml dinalbuphine sebacoyl ester parenteral dosage forms, dinalbuphine sebacoyl ester was prepared in sesame oil.

human = settings: Shafer et al. 1991; cited from earlier work
[2] = cited from earlier work
[3] = between 17 and 28 hours; p<0.05

Structure (SMILES): Oc1ccc2c3c1O[C@H]1[C@@H](O)CC[C@@]4(O)[C@@H](C2)N(CC2CCC2)CC[C@]314 [Nalbuphine hydrochloride]
- half life for excretion [1]: about 1 hour
- dose at which significant analgesic effect was found (guinea pigs): 500 µM/kg and 250 µM/kg

Structure (SMILES): CC(C)(C)C(=O)Oc1ccc2c3c1O[C@H]1[C@@H](O)CC[C@@]4(O)[C@@H](C2)N(CC2CCC2)CC[C@]314 [Nalbuphine pivalate]
- analgesic duration of Nalbuphine free base compared with the preparation of this ester (Sprague Dawley rats): significantly shorter

Structure (SMILES): CN1CC[C@]23c4c5ccc(O)c4O[C@H]2[C@@H](O)C=C[C@H]3[C@H]1C5 [Morphine]
- dose needed to elicit the same analgesic effect (human): 10 mg

Structure (SMILES): O=C(Oc1ccc2c3c1O[C@H]1[C@@H](O)CC[C@@]4(O)[C@@H](C2)N(CC2CCC2)CC[C@]314)c1ccccc1 [Nalbuphine benzoate]
- analgesic duration of Nalbuphine free base compared with the preparation of this ester (Sprague Dawley rats): significantly shorter

Structure (SMILES): Oc1ccc2c(c1)[C@@]13CCCC[C@@]1(O)[C@@H](C2)N(CC1CCC1)CC3 [Butorphanol]
- dose needed to elicit the same analgesic effect (human): 2 mg

Structure (SMILES): CCCCCCC(=O)Oc1ccc2c3c1O[C@H]1[C@@H](O)CC[C@@]4(O)[C@@H](C2)N(CC2CCC2)CC[C@]314 [Nalbuphine enanthate]
- analgesic duration of Nalbuphine free base compared with the preparation of this ester (Sprague Dawley rats): significantly shorter

Structure (SMILES): C[C@]12CC[C@H]3[C@@H](CCC4=CC(=O)CC[C@@]43C)[C@@H]1CC[C@@H]2O [Testosterone]
- drug release ([2]; suspension): released quickly

Structure (SMILES): CCCCCCCCCC(=O)Oc1ccc2c3c1O[C@H]1[C@@H](O)CC[C@@]4(O)[C@@H](C2)N(CC2CCC2)CC[C@]314 [Nalbuphine decanoate]
- analgesic duration of Nalbuphine free base compared with the preparation of this ester (Sprague Dawley rats): significantly shorter

Structure (SMILES): C#C[C@]1(OC(=O)CCCCCC)CC[C@H]2[C@@H]3CCC4=CC(=O)CC[C@@H]4[C@H]3CC[C@@]21C [Northisterone enanthate]
- dosing interval can be set longer to ([2]; Joshi et al. 1989): two months

Structure (SMILES): CCCCCCCCCC(=O)OC1(c2ccc(Cl)cc2)CCN(CCCC(=O)c2ccc(F)cc2)CC1 [Haloperidol decanoate]
- dosing frequency to which effect was extended ([2]; intramuscular, Gelders 1986): 1 to 2 times a month

Structure (SMILES): Oc1ccc2c3c1O[C@H]1[C@@H](O)CC[C@@]4(O)[C@@H](C2)N(CC2CCC2)CC[C@]314 [Nalbuphine free base, reference compound]
- analgesic duration compared with preparations of Nalbuphine monomer ester (Sprague Dawley rats): significantly shorter
- amount of released Nalbuphine free base [3]: less in the preparation with sesame oil than with peanut oil ester and the control

Structure (SMILES): CCC(=O)Oc1ccc2c3c1O[C@H]1[C@@H](O)CC[C@@]4(O)[C@@H](C2)N(CC2CCC2)CC[C@]314 [Nalbuphine propionate]
- analgesic duration of Nalbuphine free base compared with the preparation of this ester (Sprague Dawley rats): significantly shorter
